Data as given in US8338450B2, “Compounds as dipeptidyl peptidase IV (DPP IV) inhibitors” (Lupin Limited, priority 2007, dated 2012).
Where a name gives a salt, the structure may show the parent alone.

The compounds below were run against T1, human recombinant DPP-IV (Homo sapiens, UniProt P27487) (assay: Inhibition of human recombinant DPP-IV (Gly-Pro-AMC hydrolysis, fluorometric)). Conditions: compound 10 nM; relative to vehicle controls.
T1 construct: purchased R&D Systems, USA (or produced in-house)
T1 sequence (P27487 whole entry): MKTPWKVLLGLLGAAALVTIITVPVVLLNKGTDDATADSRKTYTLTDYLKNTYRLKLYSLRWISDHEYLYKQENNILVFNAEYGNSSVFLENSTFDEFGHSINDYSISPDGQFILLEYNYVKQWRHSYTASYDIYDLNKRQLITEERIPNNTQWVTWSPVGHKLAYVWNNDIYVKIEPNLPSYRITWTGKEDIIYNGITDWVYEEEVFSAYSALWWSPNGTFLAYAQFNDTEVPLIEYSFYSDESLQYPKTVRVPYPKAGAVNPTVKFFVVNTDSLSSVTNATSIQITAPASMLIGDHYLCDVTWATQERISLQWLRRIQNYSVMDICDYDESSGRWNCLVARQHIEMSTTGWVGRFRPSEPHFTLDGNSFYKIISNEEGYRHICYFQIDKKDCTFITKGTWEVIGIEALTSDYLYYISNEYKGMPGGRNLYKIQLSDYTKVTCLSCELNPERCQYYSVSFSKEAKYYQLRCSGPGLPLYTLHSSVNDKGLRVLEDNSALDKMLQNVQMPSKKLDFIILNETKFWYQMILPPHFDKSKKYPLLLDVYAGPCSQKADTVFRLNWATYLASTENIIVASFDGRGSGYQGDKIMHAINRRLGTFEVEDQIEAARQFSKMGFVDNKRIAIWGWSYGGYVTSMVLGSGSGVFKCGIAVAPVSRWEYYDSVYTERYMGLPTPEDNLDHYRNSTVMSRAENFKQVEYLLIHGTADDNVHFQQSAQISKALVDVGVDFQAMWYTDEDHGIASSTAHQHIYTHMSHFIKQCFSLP
Format: biochemical
Method: Inhibition of Human Recombinant DPP-IV
The proteolytic activity of human recombinant DPP-IV was determined by following the hydrolysis of Gly-Pro-7-amino-4-methylcoumarin (Gly-Pro-AMC) and the fluorometric quantitation of the liberated AMC. Assays were routinely carried out in 96-well flat-bottom black microwell plates. The reaction mixture (100 μl) contained 10 ng of human recombinant DPP-IV enzyme (produced in-house or procured from R&D Systems, USA) in the assay buffer (25 mM Tris-HCl, pH 7.4, 140 mM NaCl, 10 mM KCl and 0.1 mg/ml BSA) and 50 μM Gly-Pro-AMC. After incubation of assay plates at 30° C. for 30 min, the hydrolysis of Gly-Pro-AMC was monitored in a fluorescence microplate reader (Molecular Devices SpectraMax M5), with excitation and emission wavelengths set at 360 nm and 460 nm, respectively.
The inhibition of DPP-IV activity by test compounds was routinely performed by preincubating the enzyme with test compound (10 and 100 nM for primary screening and 8 concentrations from 0.1 to 1000 nM for the dose-response study) or vehicle (0.01% DMSO) for 15 min at 30° C., in a total volume of 90 μl. Test compounds were dissolved in DMSO at a concentration of 10 mM and serially diluted further in assay buffer. The enzyme reaction was initiated by the addition of Gly-Pro-AMC, followed by incubation of assay plates for 30 min at 30° C. and the liberated AMC was measured as described above. A known inhibitor of DPP-IV (positive control) was always included in the assay. Test compounds at various concentrations were always evaluated in duplicate, along with substrate blanks, vehicle controls and positive controls.
The results are expressed as percent inhibition of the enzyme activity relative to vehicle controls. Dose-response studies were conducted for those compounds exerting ≧50% inhibition of activity at 10 nM in primary screening. IC50, defined as the inhibitor concentration which caused a 50% decrease of the activity under assay conditions, was computed using GraphPad Prism software, version 5.0.
The DPP-IV inhibition data (expressed either as IC50 in nanomolar or percent inhibition at a particular compound concentration) is presented in Table 1.
With N#C[C@@H]1C[C@@H]2C[C@@H]2N1C(=O)[C@H](N)C1CC2CCC(C1)N2C(=O)c1cnccn1.O=C(O)C(F)(F)F (stereo partly drawn) [Compound 36, (1S,3S,5S)-2-{(2R)-2-Amino-2-[8-(pyrazine-2-carbonyl)-8-aza-bicyclo[3.2.1]oct-3-yl]-exo-ethanoyl}-2-azabicyclo[3.1.0]hexane-3-carbonitrile trifluoroacetic acid salt] the “% inhibition at 10 nM” value was 17% inhibition at 10 nM. With N#C[C@@H]1C[C@@H]2C[C@@H]2N1C(=O)[C@@H](N)C1CC2CCC(C1)N2C(=O)c1ccco1.O=C(O)C(F)(F)F (stereo partly drawn) [Compound 40, (1S,3S,5S)-2-{(2S)-2-Amino-2-[8-(furan-2-carbonyl)-8-aza-bicyclo[3.2.1]oct-3-yl]-exo-ethanoyl}-2-azabicyclo[3.1.0]hexane-3-carbonitrile trifluoroacetic acid salt] the “% inhibition at 10 nM” value was 44% inhibition at 10 nM. N#C[C@H]1C[C@H]2C[C@H]2N1C(=O)[C@@H](N)C1CC2CCC(C1)N2C(=O)c1cnccn1.O=C(O)C(F)(F)F (stereo partly drawn) [Compound 37, (1R,3R,5R)-2-{(2S)-2-Amino-2-[8-(pyrazine-2-carbonyl)-8-aza-bicyclo[3.2.1]oct-3-yl]-exo-ethanoyl}-2-azabicyclo[3.1.0]hexane-3-carbonitrile trifluoroacetic acid salt] was tested, and the “% inhibition at 10 nM” value was 7% inhibition at 10 nM. N#C[C@@H]1C[C@@H]2C[C@@H]2N1C(=O)[C@@H](N)C1CC2CCC(C1)N2CCC(F)(F)F.O=C(O)C(F)(F)F (stereo partly drawn) [Compound 47, (1S,3S,5S)-2-{(2S)-2-Amino-2-[8-(3,3,3-trifluoropropyl)-8-aza-bicyclo[3.2.1]oct-3-yl]-exo-ethanoyl}-2-azabicyclo[3.1.0]hexane-3-carbonitrile trifluoroacetic acid salt] was tested, and the “% inhibition at 10 nM” value was 29% inhibition at 10 nM. With N#C[C@@H]1C[C@@H]2C[C@@H]2N1C(=O)[C@H](N)C1CC2CCC(C1)N2C(=O)c1ccnc(F)c1.O=C(O)C(F)(F)F (stereo partly drawn) [Compound 31, (1S,3S,5S)-2-{(2R)-2-Amino-2-[8-(2-fluoropyridine-4-carbonyl)-8-aza-bicyclo[3.2.1]oct-3-yl]-exo-ethanoyl}-2-azabicyclo[3.1.0]hexane-3-carbonitrile trifluoroacetic acid salt] the “% inhibition at 10 nM” value was 6% inhibition at 10 nM. In the case of N[C@H](C(=O)N1CCC[C@H]1CO)C1CC2CCC(C1)N2C(=O)c1ccc2c(c1)OCO2.O=C(O)C(F)(F)F (stereo partly drawn) [Compound 14, (2S)-{(2S)-1-[(2S)-2-Amino-2-(8-(benzo[1,3]dioxole-5-carbonyl)-8-aza-bicyclo[3.2.1]-oct-3-yl)-exo-acetyl]-pyrrolidin-2-yl}methanol trifluoroacetic acid salt], the “% inhibition at 10 nM” value is reported as 12% inhibition at 10 nM.

Same assay, conditions: compound 10 nM; relative to vehicle controls; read-out: % inhibition at 10 nM
N#C[C@H]1CC[C@@H](C(=O)OCc2ccccc2)N1C(=O)[C@@H](N)C1CC2CCC(C1)N2C(=O)c1ccc(C(F)(F)F)cc1 (stereo partly drawn) [Compound 18, Benzyl-(2S,5R)-1-{(2S)-2-amino-2-[8-(4-trifluoromethyl-benzoyl)-8-aza-bicyclo[3.2.1]-oct-3-yl]-exo-ethanoyl}-5-cyano pyrrolidin-2-carboxylate trifluoroacetic acid salt] gave an inhibition at 0.01 µM of 1.11%.

Same assay, conditions: human recombinant DPP-IV, 50 μM Gly-Pro-AMC, 30 min at 30° C.
N#Cc1ccc(C(=O)N2C3CCC2CC([C@H](N)C(=O)N2CCC[C@H]2C#N)C3)cc1 (stereo partly drawn) [Compound 5, (2S)-1-{(2S)-2-Amino-2-[8-(4-cyano-benzoyl)-8-aza-bicyclo[3.2.1]oct-3-yl]-exo-ethanoyl}-pyrrolidin-2-carbonitrile trifluoroacetic acid salt] gave an IC50 of 1.52 nM. N#C[C@@H]1CCCN1C(=O)[C@@H](N)C1CC2CCC(C1)N2 (stereo partly drawn) [Compound 8, (2S)-1-{(2S)-2-Amino-2-[8-aza-bicyclo[3.2.1]oct-3-yl]-exo-ethanoyl}-pyrrolidin-2-carbonitrile trifluoro acetic acid salt] was tested, and the IC50 was 6.84 nM. N#C[C@@H]1C[C@@H]2C[C@@H]2N1C(=O)[C@@H](N)C1CC2CCC(C1)N2C(=O)c1ccc(C(F)(F)F)cc1 (stereo partly drawn) [Compound 26, (1S,3S,5S)-2-{(2S)-2-Amino-2-[8-(4-trifluoromethylbenzoyl)-8-aza-bicyclo[3.2.1]oct-3-yl]-exo-ethanoyl}-2-azabicyclo[3.1.0]hexane-3-carbonitrile trifluoroacetic acid salt] showed an IC50 of 8.9 nM. CS(=O)(=O)N1C2CCC1CC([C@H](N)C(=O)N1[C@H](C#N)C[C@@H]3C[C@@H]31)C2 (stereo partly drawn) [Compound 56, (1S,3S,5S)-2-{(2S)-2-Amino-2-[8-(methanesulfonyl)-8-aza-bicyclo[3.2.1]oct-3-yl]-exo-ethanoyl}-2-azabicyclo[3.1.0]hexane-3-carbonitrile trifluoroacetic acid salt] showed an IC50 of 4.14 nM. N#C[C@@H]1C[C@H](F)CN1C(=O)[C@@H](N)C1CC2CCC(C1)N2C(=O)c1cc(F)c(F)cc1F (stereo partly drawn) [Compound 16, (2S,4S)-1-{(2S)-2-Amino-2-[8-(2,4,5-trifluorobenzoyl)-8-aza-bicyclo[3.2.1]oct-3-yl]-exo-ethanoyl}-4-fluoro-pyrrolidin-2-carbonitrile trifluoroacetic acid salt] showed an IC50 of 2.9 nM. Compound CC(=O)N1CCC(C(=O)N2C3CCC2CC([C@H](N)C(=O)N2[C@H](C#N)C[C@@H]4C[C@@H]42)C3)CC1 (stereo partly drawn) [Compound 69, (1S,3S,5S)-2-{(2S)-2-Amino-2-[8-(1-acetyl-piperidin-4-carbonyl)-8-aza-bicyclo[3.2.1]oct-3-yl]-exo-ethanoyl}-2-azabicyclo[3.1.0]hexane-3-carbonitrile trifluoroacetic acid salt] has an IC50 of 13 nM. Compound N#C[C@@H]1C[C@@H]2C[C@@H]2N1C(=O)[C@@H](N)C1CC2CCC(C1)N2C(=O)c1cccs1 (stereo partly drawn) [Compound 34, (1S,3S,5S)-2-{(2S)-2-Amino-2-[8-(thiophene-2-carbonyl)-8-aza-bicyclo[3.2.1]oct-3-yl]-exo-ethanoyl}-2-azabicyclo[3.1.0]hexane-3-carbonitrile trifluoroacetic acid salt] has an IC50 of 12.9 nM. C#C[C@H]1CC[C@@H](C#N)N1C(=O)[C@@H](N)C1CC2CCC(C1)N2C(=O)c1ccncc1 (stereo partly drawn) [Compound 64, (2S,5R)-1-{(2S)-2-Amino-2-[8-(pyridin-4-carbonyl)-8-aza-bicyclo[3.2.1]oct-3-yl]-exo-ethanoyl}-5-ethynyl-pyrrolidin-2-carbonitrile di trifluoro acetic acid salt] showed an IC50 of 11 nM. C#C[C@H]1CC[C@@H](C#N)N1C(=O)[C@@H](N)C1CC2CCC(C1)N2C(=O)c1ccncc1F (stereo partly drawn) [Compound 65, (2S,5R)-1-{(2S)-2-Amino-2-[8-(3-fluoropyridin-4-carbonyl)-8-aza-bicyclo[3.2.1]oct-3-yl]-exo-ethanoyl}-5-ethynyl-pyrrolidin-2-carbonitrile trifluoroacetic acid salt] showed an IC50 of 7.1 nM. Compound N#C[C@@H]1C[C@@H]2C[C@@H]2N1C(=O)[C@@H](N)C1CC2CCC(C1)N2C(=O)c1ccccn1 (stereo partly drawn) [Compound 39, (1S,3S,5S)-2-{(2S)-2-Amino-2-[8-(pyridine-2-carbonyl)-8-aza-bicyclo[3.2.1]oct-3-yl]-exo-ethanoyl}-2-azabicyclo[3.1.0]hexane-3-carbonitrile trifluoroacetic acid salt] has an IC50 of 11.7 nM. Work on CS(=O)(=O)c1ccc(N2C3CCC2CC([C@H](N)C(=O)N2[C@H](C#N)C[C@@H]4C[C@@H]42)C3)cc1 (stereo partly drawn) [Compound 53, (1S,3S,5S)-2-{(2S)-2-Amino-2-[8-(4-methanesulfonylphenyl)-8-aza-bicyclo[3.2.1]oct-3-yl]-exo-ethanoyl}-2-azabicyclo[3.1.0]hexane-3-carbonitrile trifluoroacetic acid salt] yielded an IC50 of 19.7 nM. In the case of C#C[C@H]1CC[C@@H](C#N)N1C(=O)[C@@H](N)C1CC2CCC(C1)N2C(=O)c1ccc(C(F)(F)F)cc1 (stereo partly drawn) [Compound 63, (2S,5R)-1-{(2S)-2-Amino-2-[8-(4-trifluoromethyl-benzoyl)-8-aza-bicyclo[3.2.1]oct-3-yl]-exo-ethanoyl}-5-ethynyl-pyrrolidin-2-carbonitrile trifluoro acetic acid salt], the IC50 is reported as 15.5 nM.

Same assay, conditions: read-out: % inhibition at 1000 nM
Work on NC(=O)[C@@H]1C[C@@H]2C[C@@H]2N1C(=O)[C@@H](N)C1CC2CCC(C1)N2C(=O)c1ccc2c(c1)OCO2 (stereo partly drawn) [Compound 45, (1S,3S,5S)-2-{(2S)-2-Amino-2-[8-(benzo-[1,3]dioxole-5-carbonyl)-8-aza-bicyclo[3.2.1]oct-3-yl]-exo-ethanoyl}-2-azabicyclo[3.1.0]-hexane-3-carboxamide trifluoro acetic acid salt] yielded an inhibition at 1 µM of 12%.
